The target of test [1] is T1, Sentrin-specific protease 6 (Homo sapiens, UniProt Q9GZR1).
T1 sequence (Q9GZR1 whole entry): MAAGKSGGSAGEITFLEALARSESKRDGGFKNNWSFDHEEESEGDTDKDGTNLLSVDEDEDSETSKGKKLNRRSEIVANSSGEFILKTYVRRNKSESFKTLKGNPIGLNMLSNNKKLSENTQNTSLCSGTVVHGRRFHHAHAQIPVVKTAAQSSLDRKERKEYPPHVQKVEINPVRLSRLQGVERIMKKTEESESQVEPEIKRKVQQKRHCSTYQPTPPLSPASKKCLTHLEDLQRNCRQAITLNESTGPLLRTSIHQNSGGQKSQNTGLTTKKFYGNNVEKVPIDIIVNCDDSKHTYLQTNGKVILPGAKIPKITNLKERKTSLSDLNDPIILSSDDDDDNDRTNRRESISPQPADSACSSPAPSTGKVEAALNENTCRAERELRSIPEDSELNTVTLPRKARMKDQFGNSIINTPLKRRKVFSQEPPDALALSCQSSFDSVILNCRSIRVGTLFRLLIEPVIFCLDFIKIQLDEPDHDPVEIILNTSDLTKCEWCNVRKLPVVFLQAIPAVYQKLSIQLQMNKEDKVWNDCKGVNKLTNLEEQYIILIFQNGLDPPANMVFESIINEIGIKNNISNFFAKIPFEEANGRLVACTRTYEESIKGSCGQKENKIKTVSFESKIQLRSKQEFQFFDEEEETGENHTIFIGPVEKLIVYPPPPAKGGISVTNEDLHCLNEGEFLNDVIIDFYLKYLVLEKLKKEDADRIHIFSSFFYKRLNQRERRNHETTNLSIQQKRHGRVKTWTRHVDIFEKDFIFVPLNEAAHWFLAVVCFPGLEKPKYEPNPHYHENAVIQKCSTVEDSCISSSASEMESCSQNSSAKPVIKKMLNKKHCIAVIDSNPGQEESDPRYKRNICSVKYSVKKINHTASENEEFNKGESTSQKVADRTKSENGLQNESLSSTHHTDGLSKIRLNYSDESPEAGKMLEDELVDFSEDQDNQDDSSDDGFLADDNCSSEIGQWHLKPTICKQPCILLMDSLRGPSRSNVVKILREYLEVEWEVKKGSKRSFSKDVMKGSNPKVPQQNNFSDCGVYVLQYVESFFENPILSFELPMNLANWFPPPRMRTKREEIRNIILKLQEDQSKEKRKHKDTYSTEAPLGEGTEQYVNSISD
Put plainly: inhibition of human SENP6 catalytic domain – biochemical, luminescence, set 2, SAR follow-up (AID 588598). It counts as functional.

The next test addresses T2, Caspase-3 (Homo sapiens, UniProt P42574).
T2 sequence (P42574 whole entry): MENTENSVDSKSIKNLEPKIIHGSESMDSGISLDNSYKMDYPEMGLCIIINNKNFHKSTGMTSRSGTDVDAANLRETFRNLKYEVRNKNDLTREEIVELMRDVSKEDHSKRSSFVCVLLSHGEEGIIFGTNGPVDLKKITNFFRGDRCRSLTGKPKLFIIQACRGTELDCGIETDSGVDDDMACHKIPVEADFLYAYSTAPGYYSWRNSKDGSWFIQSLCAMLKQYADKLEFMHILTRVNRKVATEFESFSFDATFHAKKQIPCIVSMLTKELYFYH
Put plainly: inhibition of recombinant caspase-3 activity – biochemical, luminescence, set 2, selectivity assay for SENP protease inhibitor project, SAR follow-up (AID 588599). It is filed as functional.

The target of test [2] is T3, Sentrin-specific protease 7 (Homo sapiens, UniProt Q9BQF6).
T3 sequence (Q9BQF6 whole entry): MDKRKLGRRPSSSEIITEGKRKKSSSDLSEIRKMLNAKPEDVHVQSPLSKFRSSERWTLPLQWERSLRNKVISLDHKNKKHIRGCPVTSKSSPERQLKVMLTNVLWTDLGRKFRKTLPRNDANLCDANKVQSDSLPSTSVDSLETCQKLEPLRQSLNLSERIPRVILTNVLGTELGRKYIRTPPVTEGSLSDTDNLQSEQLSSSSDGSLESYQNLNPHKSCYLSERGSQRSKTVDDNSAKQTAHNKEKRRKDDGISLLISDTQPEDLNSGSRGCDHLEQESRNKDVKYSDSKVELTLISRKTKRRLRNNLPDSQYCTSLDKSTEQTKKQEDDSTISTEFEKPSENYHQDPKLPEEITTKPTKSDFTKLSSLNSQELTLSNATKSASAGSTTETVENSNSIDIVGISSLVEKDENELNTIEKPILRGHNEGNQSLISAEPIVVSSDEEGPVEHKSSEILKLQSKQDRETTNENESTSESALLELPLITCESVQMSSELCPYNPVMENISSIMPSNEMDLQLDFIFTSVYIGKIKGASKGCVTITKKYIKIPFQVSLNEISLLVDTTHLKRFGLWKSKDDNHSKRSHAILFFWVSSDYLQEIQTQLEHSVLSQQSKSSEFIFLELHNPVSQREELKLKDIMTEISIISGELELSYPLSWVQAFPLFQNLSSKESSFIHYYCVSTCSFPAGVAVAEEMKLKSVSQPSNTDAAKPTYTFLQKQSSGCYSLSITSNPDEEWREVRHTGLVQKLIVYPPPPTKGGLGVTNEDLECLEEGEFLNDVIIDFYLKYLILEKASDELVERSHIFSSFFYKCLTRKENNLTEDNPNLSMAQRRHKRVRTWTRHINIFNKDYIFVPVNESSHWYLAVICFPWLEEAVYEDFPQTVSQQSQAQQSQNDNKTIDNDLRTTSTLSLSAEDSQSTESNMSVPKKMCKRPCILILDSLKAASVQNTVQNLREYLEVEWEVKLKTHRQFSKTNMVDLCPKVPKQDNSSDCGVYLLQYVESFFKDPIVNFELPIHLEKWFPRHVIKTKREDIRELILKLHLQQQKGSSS
As to the kind of experiment: inhibition of human SENP7 cleavage activity – biochemical, luminescence, set 2, SAR follow-up (AID 588600). It is filed as functional.

Test [3] has as its target T4, Sentrin-specific protease 8 (Homo sapiens, UniProt Q96LD8).
T4 sequence (Q96LD8 whole entry): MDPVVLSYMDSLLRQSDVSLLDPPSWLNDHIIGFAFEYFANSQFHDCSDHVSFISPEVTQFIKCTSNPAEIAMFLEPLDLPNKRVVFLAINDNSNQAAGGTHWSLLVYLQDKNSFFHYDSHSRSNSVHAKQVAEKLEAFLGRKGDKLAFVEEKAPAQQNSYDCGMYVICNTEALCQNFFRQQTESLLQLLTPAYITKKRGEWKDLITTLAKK
As to the kind of experiment: inhibition of sentrin protease 8 – biochemical, luminescence, set 2, SAR follow-up (AID 588601). It is filed as functional.

The next test concerns the target Phospholipase D2 (Homo sapiens, UniProt O14939). As to the kind of experiment: cellular phospholipase D2 inhibition IC50 – cell-based, dose response (AID 602147).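 Also: cellular assay in HEK293 cells overexpressing GFP-tagged PLD2.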 It counts as functional.
The target in the next test is Phospholipase D1 (Homo sapiens, UniProt Q13393). Put plainly: cellular phospholipase D1 inhibition IC50 – cell-based, dose response (AID 602151).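 Also: cellular PLD1 assay in Calu-1 cells stimulated with PMA.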 It is filed as functional.
Sequence of Phospholipase D1 (Q13393 whole entry): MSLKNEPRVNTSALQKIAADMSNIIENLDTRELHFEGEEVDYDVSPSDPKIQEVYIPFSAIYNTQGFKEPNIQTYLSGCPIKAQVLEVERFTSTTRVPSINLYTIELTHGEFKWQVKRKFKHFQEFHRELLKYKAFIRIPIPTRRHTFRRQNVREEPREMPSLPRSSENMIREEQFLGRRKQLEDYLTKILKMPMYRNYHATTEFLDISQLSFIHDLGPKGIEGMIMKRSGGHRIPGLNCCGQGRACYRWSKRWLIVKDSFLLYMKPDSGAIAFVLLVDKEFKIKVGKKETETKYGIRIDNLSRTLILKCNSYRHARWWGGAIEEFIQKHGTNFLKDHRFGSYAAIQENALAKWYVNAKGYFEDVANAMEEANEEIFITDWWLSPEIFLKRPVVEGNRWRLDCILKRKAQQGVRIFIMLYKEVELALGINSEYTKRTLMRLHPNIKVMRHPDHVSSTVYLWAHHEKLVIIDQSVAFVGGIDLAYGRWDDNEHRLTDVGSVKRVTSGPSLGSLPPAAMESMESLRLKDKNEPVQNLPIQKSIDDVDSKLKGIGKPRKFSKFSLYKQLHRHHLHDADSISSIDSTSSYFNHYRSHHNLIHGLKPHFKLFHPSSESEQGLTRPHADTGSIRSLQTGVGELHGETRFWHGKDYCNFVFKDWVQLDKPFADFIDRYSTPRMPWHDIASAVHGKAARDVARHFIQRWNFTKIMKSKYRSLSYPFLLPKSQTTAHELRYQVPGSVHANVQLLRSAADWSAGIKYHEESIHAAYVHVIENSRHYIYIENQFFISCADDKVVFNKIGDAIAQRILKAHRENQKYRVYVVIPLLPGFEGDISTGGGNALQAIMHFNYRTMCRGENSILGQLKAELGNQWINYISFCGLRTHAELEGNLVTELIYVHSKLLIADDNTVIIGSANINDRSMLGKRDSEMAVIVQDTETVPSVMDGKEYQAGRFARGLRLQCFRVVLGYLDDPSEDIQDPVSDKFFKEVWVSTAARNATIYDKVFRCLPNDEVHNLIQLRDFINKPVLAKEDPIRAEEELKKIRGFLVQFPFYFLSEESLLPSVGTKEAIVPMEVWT
Test [4] concerns the target T5, Ubiquitin-conjugating enzyme E2 N (Homo sapiens, UniProt P61088).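 Also: Dose-response confirmation in a TR-FRET assay detecting UBC13-driven polyubiquitin chain formation, inhibition measured.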
T5 sequence (P61088 whole entry): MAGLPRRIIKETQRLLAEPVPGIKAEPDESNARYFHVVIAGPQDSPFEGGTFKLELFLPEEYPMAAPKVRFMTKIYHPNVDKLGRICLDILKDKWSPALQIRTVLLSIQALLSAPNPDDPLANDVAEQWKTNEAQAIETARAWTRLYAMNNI
It is filed as functional.

Test [5] is described as follows: decrease of insulin promoter-GFP reporter – imaging, high-content screening, mouse beta cells (AID 1628). It counts as functional. Particulars: MIN6.
Test [6] can be described thus: loss of viability in HepG2 cells – cell-based, CellTiter-Glo, cherry-picked, cytotoxicity control for Shn3 inhibitor project, dose response (AID 624134). It is filed as functional. (In ATP-based viability assays light output follows the ATP content of the culture.)
The nature of test [7]: fluconazole-exposed Candida albicans growth modulators – fluorescence, retest, confirmation (AID 2467). It counts as functional, cell-based.
Test [8] in a line: NIH-3T3 fibroblast cytotoxicity, dose response, cytotoxicity control, cell-based, fluorescence, Alamar Blue, secondary assay (AID 2327).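 Also: NIH-3T3 mouse fibroblasts cultured with fluconazole at 8 µg/mL.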 It is filed as functional. (The colour change of resazurin is a common sign of viable cells or microbes.)
Test [9] concerns the target ATP-dependent molecular chaperone HSP82 (Candida albicans (strain WO-1) (Yeast), UniProt C4YTQ8). As to the kind of experiment: steroid-induced GRE reporter decrease in yeast – S. cerevisiae, luminescence, Hsp90 inhibitor project, dose response (AID 2400).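 Also: beta-galactosidase luminescence from glucocorticoid response element reporter as proxy for Hsp90 function; inhibitor potency where signal loss means Hsp90 inhibition.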 It is filed as functional, cell-based.
Test [10] concerns the target G-protein coupled receptor 55 (Homo sapiens, UniProt Q9Y2T6). As to the kind of experiment: inhibition of LPI-stimulated GPR55 beta-arrestin translocation – imaging, U2OS, beta-arrestin-GFP, LPI agonist, primary screen (AID 2013).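 Also: antagonist potency measured as reduced agonist-driven arrestin aggregation.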 It counts as functional.
Test [11] in a line: MIN6 cell viability loss – mouse insulinoma, cytotoxicity control, dose response (AID 2122).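 Also: confirmatory high-throughput counterscreen run to flag cytotoxic compounds.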 It is filed as functional.
A short description of test [12]: non-specific 3'UTR reporter inhibition in Clone20-Shn3RL – cell-based, Renilla luciferase, cherry-picked, counter-screen for Shn3 inhibitor project, dose response (AID 624133). It counts as functional. (In general: Counterscreens check selectivity or assay interference.)
Test [13] in a line: reduction of Shn3 3'UTR-driven luciferase in osteoblasts – cell-based, Clone20 osteoblasts, firefly luciferase, cherry-picked, dose response (AID 624132).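 Also: firefly luciferase luminescence from reporter carrying the Shn3 3'UTR in osteoblasts.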 It counts as functional.
In test [14] the target is Serine/threonine-protein phosphatase (Candida dubliniensis (strain CD36 / CBS 7987 / NCPF 3949 / NRRLY-17841) (Yeast), UniProt B9W6M3). Put plainly: blockers of CaCl2-induced CDRE-lacZ signaling – S. cerevisiae, luminescence, secondary, dose response (AID 2388).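 Also: yeast reporter cells carrying a calcineurin-responsive lacZ construct stimulated with calcium chloride; luminescent beta-galactosidase reporter signal in whole cells rather than isolated phosphatase activity; potency for inhibition where a drop in reporter signal means calcineurin blockade.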 It is filed as functional, cell-based.
Sequence of Serine/threonine-protein phosphatase (B9W6M3 whole entry): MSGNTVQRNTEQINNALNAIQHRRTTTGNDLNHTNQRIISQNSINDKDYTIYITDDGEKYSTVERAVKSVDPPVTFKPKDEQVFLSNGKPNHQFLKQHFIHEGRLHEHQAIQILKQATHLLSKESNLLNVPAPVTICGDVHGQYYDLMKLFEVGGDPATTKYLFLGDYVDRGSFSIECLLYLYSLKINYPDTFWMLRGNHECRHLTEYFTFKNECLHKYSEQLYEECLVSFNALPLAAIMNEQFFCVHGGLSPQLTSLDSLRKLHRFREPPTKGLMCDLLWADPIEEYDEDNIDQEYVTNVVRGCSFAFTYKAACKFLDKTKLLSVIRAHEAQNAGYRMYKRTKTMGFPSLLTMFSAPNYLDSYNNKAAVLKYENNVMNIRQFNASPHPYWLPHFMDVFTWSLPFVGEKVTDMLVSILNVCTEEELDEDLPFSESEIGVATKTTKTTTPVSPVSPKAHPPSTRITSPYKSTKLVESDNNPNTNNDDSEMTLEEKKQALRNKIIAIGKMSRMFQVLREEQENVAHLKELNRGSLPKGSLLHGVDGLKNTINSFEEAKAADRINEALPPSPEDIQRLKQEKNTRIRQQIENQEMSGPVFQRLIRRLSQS

The source made the active and inactive calls.

Sequence of Phospholipase D2 (O14939 whole entry): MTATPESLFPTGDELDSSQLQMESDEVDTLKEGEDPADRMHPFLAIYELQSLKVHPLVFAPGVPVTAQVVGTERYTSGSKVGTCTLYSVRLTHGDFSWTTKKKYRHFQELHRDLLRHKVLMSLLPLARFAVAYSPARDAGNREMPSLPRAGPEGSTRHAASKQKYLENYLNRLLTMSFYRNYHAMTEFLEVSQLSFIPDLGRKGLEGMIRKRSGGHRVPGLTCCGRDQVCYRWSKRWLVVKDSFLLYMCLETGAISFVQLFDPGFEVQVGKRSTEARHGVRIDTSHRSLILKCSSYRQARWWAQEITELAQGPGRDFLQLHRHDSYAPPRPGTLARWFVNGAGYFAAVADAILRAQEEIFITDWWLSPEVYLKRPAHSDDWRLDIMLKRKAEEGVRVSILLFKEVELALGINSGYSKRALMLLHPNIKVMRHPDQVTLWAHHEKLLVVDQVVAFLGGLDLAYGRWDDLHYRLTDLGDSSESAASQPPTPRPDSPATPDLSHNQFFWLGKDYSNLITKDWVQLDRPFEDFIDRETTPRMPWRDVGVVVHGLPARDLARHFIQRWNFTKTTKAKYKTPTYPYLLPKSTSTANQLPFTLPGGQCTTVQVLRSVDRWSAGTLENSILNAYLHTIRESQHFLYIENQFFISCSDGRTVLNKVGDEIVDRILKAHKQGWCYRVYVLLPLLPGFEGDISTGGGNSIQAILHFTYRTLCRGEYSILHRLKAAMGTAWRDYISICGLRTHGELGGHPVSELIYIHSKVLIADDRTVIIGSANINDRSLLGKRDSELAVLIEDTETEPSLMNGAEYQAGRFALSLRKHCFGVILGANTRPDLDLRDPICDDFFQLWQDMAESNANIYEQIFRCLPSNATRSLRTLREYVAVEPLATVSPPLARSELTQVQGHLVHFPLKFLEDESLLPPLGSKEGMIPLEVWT
Sequence of ATP-dependent molecular chaperone HSP82 (C4YTQ8 whole entry): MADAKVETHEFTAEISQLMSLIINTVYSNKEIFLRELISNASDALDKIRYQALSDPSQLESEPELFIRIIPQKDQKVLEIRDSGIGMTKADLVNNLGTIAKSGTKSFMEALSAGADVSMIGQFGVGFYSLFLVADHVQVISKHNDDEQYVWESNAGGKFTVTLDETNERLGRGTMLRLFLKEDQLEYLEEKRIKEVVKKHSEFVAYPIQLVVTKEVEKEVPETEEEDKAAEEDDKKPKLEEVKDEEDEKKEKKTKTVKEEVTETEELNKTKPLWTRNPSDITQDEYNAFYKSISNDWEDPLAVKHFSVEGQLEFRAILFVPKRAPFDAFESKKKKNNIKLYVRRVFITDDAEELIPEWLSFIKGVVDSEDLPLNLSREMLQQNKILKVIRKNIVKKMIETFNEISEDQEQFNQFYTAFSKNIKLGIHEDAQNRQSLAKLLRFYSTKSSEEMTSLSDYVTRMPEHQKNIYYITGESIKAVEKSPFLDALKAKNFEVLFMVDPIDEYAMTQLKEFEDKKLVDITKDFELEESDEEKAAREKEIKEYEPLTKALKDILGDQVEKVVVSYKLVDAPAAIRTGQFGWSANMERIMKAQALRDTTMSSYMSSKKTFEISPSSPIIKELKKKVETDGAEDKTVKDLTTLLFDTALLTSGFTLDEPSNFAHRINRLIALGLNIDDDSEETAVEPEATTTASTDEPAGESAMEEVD
Sequence of G-protein coupled receptor 55 (Q9Y2T6 whole entry): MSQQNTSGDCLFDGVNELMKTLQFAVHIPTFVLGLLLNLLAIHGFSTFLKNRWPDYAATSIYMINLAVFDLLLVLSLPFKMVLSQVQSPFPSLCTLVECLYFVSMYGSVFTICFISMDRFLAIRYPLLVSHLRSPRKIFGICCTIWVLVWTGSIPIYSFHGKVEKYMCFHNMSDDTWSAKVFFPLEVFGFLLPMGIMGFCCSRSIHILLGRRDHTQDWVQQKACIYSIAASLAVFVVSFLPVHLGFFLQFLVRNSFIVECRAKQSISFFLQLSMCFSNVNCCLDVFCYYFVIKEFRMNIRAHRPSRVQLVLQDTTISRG

For `Cc1ccccc1-c1noc(/C(C#N)=C\c2ccccc2F)n1`, the IC50 (in test [1]; at Caspase-3; in test [2]; in test [3]) was > 99 µM (inactive) in each case.
`O=C(NCCN1CCC2(CC1)CCN(c1ccccc1)C2=O)c1cnc2ccccc2c1`: the 50% inhibitory concentration (IC50) (as a rule, the midpoint of a concentration-inhibition curve) on Phospholipase D2 was 20 µM (active); at Phospholipase D1, 20 µM (inactive).
Turning to `Cc1cc(Nc2ccccc2)nc(NCc2ccccc2)n1`, the IC50 in test [4] was > 20 µM (inactive); in [5], 0.927 µM (active); in [10], 2.05 µM (active); in [11], 0.571 µM (active). In addition, the AC50 (in general, the concentration giving half of the maximal activity seen) in [6] was 20.5 µM (active); in test [12], 2.54 µM (active); in [13], 1.04 µM (active). In addition, the half-maximal effective concentration (EC50) – broadly, the midpoint of the concentration-response curve – in [7] is 0.783 µM (active); in test [8], > 150 µM (inactive); in test [9], > 150 µM (inactive); in test [14] it was > 180 µM (inactive).

The values are drawn from ChEMBL document CHEMBL1201862, “PubChem BioAssay data set” (2004).
